Test: Acute intervention: nutrikinetics of plasma metabolites after ingestion of O. europaea extract (untargeted HPLC-ESI-QTOF-MS)
Procedure: A total of 25 healthy individuals participated, with an average age of 27 ± 9 years and a mean body mass index (BMI) of 23 ± 3 kg/m^2. None of the participants were taking any medications or nutritional supplements nor did they have any chronic diseases or gastrointestinal issues. The sample size was established based on findings from previous bioavailability research.[14] All participants provided informed consent before participating in the study.
The intervention study was carried out at Miguel Hernández University. Following an overnight fast, the volunteers were categorized into the subsequent groups: a subgroup to evaluate the LC leaf extract (n = 8), another for the OE leaf extract (n = 8), and the placebo subgroup (n = 9). This was a double-blind study, in which sample collection and treatment were carried out uniformly across all three subgroups.
Water was provided ad libitum. Prior to the ingestion of the capsule, a nurse inserted a cannula into the ulnar vein of each volunteer’s nondominant arm, and blood samples were drawn into EDTA-coated tubes at baseline (t = 0). Blood samples were then collected at 0.5, 1, 2, 4, 6, 8, and 10 h after the consumption of the 500 mg capsule. Plasma was separated through centrifugation (10 min at 3000 rpm and 4 °C) and stored at −80 °C until further analysis.
Plasma samples were initially treated using a mixture of methanol and ethanol (50:50; v:v) to remove proteins, following previously reported protocols.[19] During the sample treatment, pooled quality controls (pooled-QC) were prepared by combining equal aliquots from each sample. These QC samples were processed by using the same protocols as the experimental biological samples.
A reversed-phase analytical C18 column (Agilent Zorbax Eclipse Plus, 1.8 μm, 4.6 × 150 mm^2) with a protective cartridge with the same packing was used. MS data were acquired in negative ionization mode, operating in full scan across a mass-to-charge ratio (m/z) range of 50–1700. The analytical method used was adapted from that described by Villegas-Aguilar et al.[19]
Metabolite nutrikinetics were studied using PKSolver, an add-in program for pharmacokinetic data analysis in Microsoft Excel. The time to reach the maximum concentration (observed Tmax) was calculated for each significant metabolite. As an untargeted metabolomic approach was used to detect the circulating metabolites, these were not quantified. Therefore, the maximum concentration (Cmax) and area under the curve (AUC) parameters were calculated in a relative way by using the deconvoluted chromatographic areas. […] Statistical differences were determined by unpaired t tests. All p values less than 0.05 were considered statistically significant.

[1] = 0.5 h after O. europaea extract
[2] = human plasma, 500 mg capsule of O. europaea (OE) extract, oral, mean ± SD

| Compound | mean chromatographic area in plasma, T0.5 [1] | mean chromatographic area in plasma, T1 (1 h after O. europaea extract) | mean chromatographic area in plasma, T2 (2 h after O. europaea extract) | mean chromatographic area in plasma, T4 (4 h after O. europaea extract) | mean chromatographic area in plasma, T6 (6 h after O. europaea extract) | mean chromatographic area in plasma, T8 (8 h after O. europaea extract) | mean chromatographic area in plasma, T10 (10 h after O. europaea extract) | Cmax: relative maximum plasma level [2] | observed Tmax: time required to reach Cmax [2] [h] | Cmax: relative maximum plasma level (human, in vivo, po, 500 mg) | observed Tmax: time required to reach Cmax (human, in vivo, po, 500 mg) [h] | mean chromatographic area in plasma, T0.5 (in vivo) | mean chromatographic area in plasma, T1 (in vivo) | mean chromatographic area in plasma, T2 (in vivo) | mean chromatographic area in plasma, T4 (in vivo) | mean chromatographic area in plasma, T6 (in vivo) | mean chromatographic area in plasma, T8 (in vivo) | mean chromatographic area in plasma, T10 (in vivo) |
| --- | --- | --- | --- | --- | --- | --- | --- | --- | --- | --- | --- | --- | --- | --- | --- | --- | --- | --- |
| 10-hydroxy-7 -methoxyoleuropein [10-hydroxy-7-methoxyoleuropein isomer 1] | 0 | 61 | 107 | 16 | 0 | 0 | 0 | 107 ± 22 relative chromatographic area | 2 ± 0 | – | – | – | – | – | – | – | – | – |
| 10-hydroxy-7 -methoxyoleuropein [10-hydroxy-7-methoxyoleuropein isomer 2] | 11 | 164 | 229 | 148 | 34 | 0 | 0 | 241 ± 89 relative chromatographic area | 1.9 ± 0.3 | – | – | – | – | – | – | – | – | – |
| OC[C@H]1O[C@@H](OCc2ccoc2)[C@H](O)[C@@H](O)[C@@H]1O (single isomer, unassigned; isomer 1) [3-furanmethanol glucoside isomer 1, 3-furanmethanol glucoside] | 27 | 200 | 184 | 107 | 17 | 0 | 0 | 236 ± 104 relative chromatographic area | 1.6 ± 0.5 | – | – | – | – | – | – | – | – | – |
| OC[C@H]1O[C@@H](OCc2ccoc2)[C@H](O)[C@@H](O)[C@@H]1O (single isomer, unassigned; isomer 2) [3-furanmethanol glucoside isomer 2, 3-furanmethanol glucoside] | 625 | 1234 | 961 | 483 | 250 | 113 | 0 | 1234 ± 489 relative chromatographic area | 1 ± 0 | – | – | – | – | – | – | – | – | – |
| COc1cc(C)cc(OC)c1OC [1,2,3-trimethoxy-5-methyl benzene] | 117 | 221 | 105 | 0 | 0 | 0 | 0 | 221 ± 72 relative chromatographic area | 1 ± 0 | – | – | – | – | – | – | – | – | – |
| Oc1cc(O)c2c(c1)O[C@H](c1ccc(O)c(O)c1)[C@H](O)[C@H]2SCc1ccccc1 [4β-benzylthioepicatechin] | 25 | 123 | 151 | 50 | 0 | 0 | 0 | 158 ± 62 relative chromatographic area | 1.7 ± 0.5 | – | – | – | – | – | – | – | – | – |
| COC(=O)C1=CO[C@H](O)/C(=C/CO)[C@@H]1CC(=O)OCCc1ccc(O)c(O)c1 [10-hydroxyoleuropein aglycone] | 165 | 142 | 15 | 0 | 0 | 0 | 0 | 194 ± 76 relative chromatographic area | 0.7 ± 0.2 | – | – | – | – | – | – | – | – | – |
| O=C(/C=C/C1=CC(=O)C(=O)C=C1)OC1CC(O)(C(=O)O)CC(O)C1O (centres unmarked) [chlorogenoquinone] | 181 | 315 | 154 | 12 | 11 | 0 | 0 | 324 ± 7 relative chromatographic area | 0.9 ± 0.2 | – | – | – | – | – | – | – | – | – |
| C[C@]12CC[C@@H](O[C@@H]3O[C@H](C(=O)O)[C@@H](O)[C@H](O)[C@H]3O)C[C@@H]1CC[C@@H]1[C@@H]2C(=O)C[C@@]2(C)[C@H]1CC[C@]2(O)[C@@H](O)CO [cortolone-3-glucuronide] | 0 | 0 | 0 | 160 | 82 | 63 | 0 | 163 ± 88 relative chromatographic area | 4.4 ± 0.8 | – | – | – | – | – | – | – | – | – |
| O=C(O)CCCCCCCCC(=O)O [debacic acid isomer 3, sebacic acid] | – | – | – | – | – | – | – | – | – | 330 ± 109 relative chromatographic area | 6 ± 2 | 13 | 0 | 33 | 209 | 226 | 178 | 141 |
| O=C(O)CCCCCCCCC(=O)O [decanedioic acid isomer 1, decanedioic acid] | 0 | 169 | 232 | 167 | 68 | 11 | 0 | 232 ± 48 relative chromatographic area | 2 ± 0 | – | – | – | – | – | – | – | – | – |
| O=C(O)CCCCCCCCC(=O)O [decanedioic acid isomer 2, decanedioic acid] | 0 | 0 | 26 | 47 | 84 | 38 | 60 | 112 ± 11 relative chromatographic area | 6 ± 3 | – | – | – | – | – | – | – | – | – |
| CC(=O)Oc1cc2c(c(C)c1OC(C)=O)CC=C1[C@@]2(C)CC[C@@]2(C)C3C[C@](C)(C(=O)O)CC[C@]3(C)CC[C@]12C (some centres unmarked) [dihydrocelastryl diacetate] | 0 | 38 | 150 | 163 | 81 | 38 | 20 | 239 ± 78 relative chromatographic area | 3 ± 1 | – | – | – | – | – | – | – | – | – |
| COc1cc(CCC(=O)O)ccc1O[C@@H]1O[C@H](C(=O)O)[C@@H](O)[C@H](O)[C@H]1O [dihydroferulic acid 4-O-glucuronide] | – | – | – | – | – | – | – | – | – | 171 ± 110 relative chromatographic area | 2 ± 2 | 74 | 114 | 94 | 113 | 109 | 74 | 41 |
| COc1cc(CCC(=O)O)ccc1OS(=O)(=O)O [dihydroferulic acid 4-sulfate] | – | – | – | – | – | – | – | – | – | 190 ± 20 relative chromatographic area | 1.3 ± 0.4 | – | – | – | – | – | – | – |
| O=C(Oc1cc(O)c2c(c1)O[C@H](c1cc(O)c(O)c(O)c1)[C@H](O)C2)c1cc(O)c(O)c(O)c1 [epigallocatechin 7-O-gallate] | 14 | 126 | 12 | 0 | 0 | 0 | 0 | 126 ± 30 relative chromatographic area | 1 ± 0 | – | – | – | – | – | – | – | – | – |

Source: publication PMC11544713, “The Application of Untargeted Metabolomic Approaches for the Search of Common Bioavailable Metabolites in Human Plasma Samples from Lippia citriodora and Olea europaea Extracts” (Journal of Agricultural and Food Chemistry, 2024)
